pIC50: −log10 of the molar value.
Legend:
[1] = biological target: Ba/F3 cells expressing EML4-ALK L1196M (Homo sapiens, UniProt Q9HC35+Q9UM73, L1196M); assay: Ba/F3 cell survival assay; format: cell-based; conditions: without IL-3
H3122 CR3 cells [2] = assay: cell survival assay; format: cell-based; conditions: for sensitivity in cell survival assay: H3122 CR3 (no ALK mutation, EGFR activation), gefitinib 2 μM in combination
[3] = biological target: T1, Ba/F3 cells expressing EML4-ALK G1202R (Homo sapiens, UniProt Q9HC35+Q9UM73, G1202R); assay: Ba/F3 cell survival assay; format: cell-based
T1 sequence (Q9HC35+Q9UM73 with tags, fused parts or gaps Q9UM73:G1202R): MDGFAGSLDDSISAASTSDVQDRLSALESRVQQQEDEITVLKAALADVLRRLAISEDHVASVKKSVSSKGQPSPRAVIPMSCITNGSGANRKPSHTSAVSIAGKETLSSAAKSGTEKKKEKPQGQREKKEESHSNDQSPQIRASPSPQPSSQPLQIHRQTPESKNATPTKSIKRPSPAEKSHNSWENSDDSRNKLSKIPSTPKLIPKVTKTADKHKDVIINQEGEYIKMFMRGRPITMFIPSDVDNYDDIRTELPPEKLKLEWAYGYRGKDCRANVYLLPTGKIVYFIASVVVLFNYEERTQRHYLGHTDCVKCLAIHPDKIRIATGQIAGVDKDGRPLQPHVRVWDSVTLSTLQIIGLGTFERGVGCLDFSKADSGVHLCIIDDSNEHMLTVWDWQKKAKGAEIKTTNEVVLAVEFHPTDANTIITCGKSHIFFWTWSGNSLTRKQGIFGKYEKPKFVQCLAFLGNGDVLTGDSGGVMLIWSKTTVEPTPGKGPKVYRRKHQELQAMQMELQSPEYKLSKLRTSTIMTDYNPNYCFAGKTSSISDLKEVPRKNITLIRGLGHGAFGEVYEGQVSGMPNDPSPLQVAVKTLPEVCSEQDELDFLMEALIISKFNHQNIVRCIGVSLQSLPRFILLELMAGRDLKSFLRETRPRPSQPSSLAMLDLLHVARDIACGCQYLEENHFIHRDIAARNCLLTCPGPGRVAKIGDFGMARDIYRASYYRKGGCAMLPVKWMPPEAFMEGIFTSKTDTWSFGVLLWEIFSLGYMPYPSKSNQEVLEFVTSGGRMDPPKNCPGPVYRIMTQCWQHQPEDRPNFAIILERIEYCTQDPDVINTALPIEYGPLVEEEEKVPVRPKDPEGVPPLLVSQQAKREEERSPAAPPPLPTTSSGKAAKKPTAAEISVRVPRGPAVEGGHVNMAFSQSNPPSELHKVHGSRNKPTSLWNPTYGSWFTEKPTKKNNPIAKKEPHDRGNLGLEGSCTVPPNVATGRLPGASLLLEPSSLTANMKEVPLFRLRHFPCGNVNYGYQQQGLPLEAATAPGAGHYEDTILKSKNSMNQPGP

[4] = system: phosphorylation of EML4-ALK; assay: phospho-ALK immunoblotting in Ba/F3 cells; format: cell-based; conditions: all Ba/F3 lines expressing wild-type or mutant EML4-ALK
[5] = system: parental, IL-3-dependent Ba/F3 cells; assay: Ba/F3 cell survival assay; format: cell-based, murine; conditions: parental Ba/F3 cells cultured with IL-3 (off-target toxicity control)
H3122 CR2 cells = assay: cell survival assay; format: cell-based
[6] = biological target: T2, Ba/F3 cells expressing EML4-ALK S1206Y (Homo sapiens, UniProt Q9HC35+Q9UM73, S1206Y); assay: Ba/F3 cell survival assay; format: cell-based; conditions: without IL-3
T2 sequence (Q9HC35+Q9UM73 with tags, fused parts or gaps Q9UM73:S1206Y): T1 sequence (Q9HC35+Q9UM73 with tags, fused parts or gaps Q9UM73:G1202R) with R641G, S645Y

[7] = biological target: Ba/F3 cells expressing EML4-ALK 1151Tins (Homo sapiens, UniProt Q9HC35+Q9UM73, DUP1151-1151); assay: Ba/F3 cell survival assay; format: cell-based; conditions: Ba/F3 EML4-ALK 1151Tins, without IL-3
H3122 CR3 cells [8] = conditions: H3122 CR3, 1 μM crizotinib, 2 μM gefitinib or the combination, 72 hours
H3122 cells [9] = assay: cell survival assay; format: cell-based; conditions: parental H3122 cells (EML4-ALK variant 1)
H3122 cells [10] = assay: apoptosis assay; format: cell-based; conditions: parental H3122, 1 μM crizotinib, 72 hours
MGH006 cells = conditions: from crizotinib-naive ALK-positive NSCLC patient
H3122 CR1 cells = assay: cells; conditions: Homo sapiens, NCI-H3122, 72 h
[11] = system: KIT-overexpressing H3122 cells; conditions: imatinib 1 μM with crizotinib 1 μM and SCF 100 ng/ml
[12] = biological target: ALK (V1058-P1620) wild type (Homo sapiens, UniProt Q9UM73); assay: in vitro kinase assay; format: biochemical; conditions: in vitro kinase assay data, tables S1 and S2
[13] = biological target: Ba/F3 cells expressing wild-type EML4-ALK (Homo sapiens, UniProt Q9HC35+Q9UM73); assay: Ba/F3 cell survival assay; format: cell-based; conditions: without IL-3

ALK (V1058-P1620) wild type, sequence (Q9UM73 1058-1620): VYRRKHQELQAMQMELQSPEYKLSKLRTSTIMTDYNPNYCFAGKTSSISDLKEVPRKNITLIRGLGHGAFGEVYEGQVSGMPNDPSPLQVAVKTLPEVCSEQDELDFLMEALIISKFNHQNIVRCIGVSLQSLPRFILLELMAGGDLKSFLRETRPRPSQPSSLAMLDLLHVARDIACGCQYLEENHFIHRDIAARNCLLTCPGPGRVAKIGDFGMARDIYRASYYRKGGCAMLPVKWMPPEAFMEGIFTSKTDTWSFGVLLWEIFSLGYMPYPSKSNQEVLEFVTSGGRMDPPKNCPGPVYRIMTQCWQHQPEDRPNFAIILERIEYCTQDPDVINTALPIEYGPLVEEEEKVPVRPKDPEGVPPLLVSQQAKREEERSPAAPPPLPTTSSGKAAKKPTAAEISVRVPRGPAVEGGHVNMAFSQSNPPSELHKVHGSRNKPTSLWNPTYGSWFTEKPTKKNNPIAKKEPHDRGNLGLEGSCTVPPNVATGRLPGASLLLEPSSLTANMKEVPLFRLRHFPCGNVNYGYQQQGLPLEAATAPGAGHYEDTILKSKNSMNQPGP

C=CCNC1=C2C[C@@H](C)C[C@H](OC)[C@H](O)[C@@H](C)/C=C(\C)[C@H](OC(N)=O)[C@@H](OC)/C=C\C=C(/C)C(=O)NC(=CC1=O)C2=O [17-AAG, 17-allylamino-17-demethoxygeldanamycin]
potency / resistance in cell survival assay [1]: highly active
sensitivity in cell survival assay (H3122 CR3 cells [2]): resistant
potency / resistance in cell survival assay ([3]; Ba/F3 EML4-ALK G1202R, without IL-3): highly active
effect on phospho-ALK and total ALK protein levels [4]: decreased both phospho-ALK and total ALK protein levels
activity in cell survival assay [5]: at relatively low concentrations
sensitivity in cell survival assay (H3122 CR2 cells; H3122 CR2 (1151Tins)): highly susceptible
potency / resistance in cell survival assay [6]: highly active
potency / resistance in cell survival assay [7]: highly active

COc1cc(N2CCC(N3CCN(C)CC3)CC2)ccc1Nc1ncc(Cl)c(Nc2ccccc2S(=O)(=O)C(C)C)n1 [NVP-TAE684]
activity in cell survival assay [5]: less effective

COc1cc2ncnc(Nc3ccc(F)c(Cl)c3)c2cc1OCCCN1CCOCC1 [gefitinib]
induction of apoptosis (H3122 CR3 cells [8]): failed to induce apoptosis
sensitivity in cell survival assay (H3122 CR3 cells [2]): resistant

C[C@@H](Oc1cc(-c2cnn(C3CCNCC3)c2)cnc1N)c1c(Cl)ccc(F)c1Cl [crizotinib]
sensitivity in cell survival assay (H3122 cells [9]): highly sensitive
induction of apoptosis (H3122 cells [10]): marked apoptosis
induction of apoptosis (H3122 CR3 cells [8]): failed to induce apoptosis
sensitivity in cell survival assay (H3122 CR3 cells [2]): resistant
pIC50 (H3122 CR3 cells [2]; Homo sapiens, NCI-H3122, 72 h): < 6.00
sensitivity in cell survival assay (MGH006 cells): sensitive
pIC50 (H3122 CR2 cells; Homo sapiens, NCI-H3122, 72 h): < 6.00
pIC50 (H3122 CR1 cells): < 6.00

Cc1ccc(NC(=O)c2ccc(CN3CCN(C)CC3)cc2)cc1Nc1nccc(-c2cccnc2)n1 [imatinib]
effect on crizotinib-resistant phenotype [11]: completely reversed the resistant phenotype

COc1cc(N2CCC(N3CCN(C)CC3)CC2)ccc1Nc1ncnc(Nc2ccccc2S(=O)(=O)C(C)C)n1 [ASP-3026]
potency and selectivity against wild-type ALK in vitro [12]: relatively potent and selective
potency in cell survival assay [13]: not as potent as crizotinib and CH5424802
shift in IC50 compared to wild-type ALK (fold) ([3]; Ba/F3 EML4-ALK G1202R relative to wild-type): fourfold
